Structures can show the parent of a compound that is named as a salt.
Assays:
[1] = target: T1, dopamine (DA) reuptake sites (Rattus norvegicus, UniProt P23977); assay: displacement of [3H]GBR 12935 from dopamine reuptake sites, striatal membranes; type: binding; details: 10^-6 M test compound, [3H]GBR 12935 1 nM, one test only, read-out: DA uptake (% displacement of specific binding of tritiated ligand)
T1 construct: Striatal tissue from the brains of male Charles River rats weighing 150-250 g; from tissue; host or cells: rat brain striatum (crude synaptosomes in A1, washed membranes in A4)
T1 sequence (P23977 whole entry): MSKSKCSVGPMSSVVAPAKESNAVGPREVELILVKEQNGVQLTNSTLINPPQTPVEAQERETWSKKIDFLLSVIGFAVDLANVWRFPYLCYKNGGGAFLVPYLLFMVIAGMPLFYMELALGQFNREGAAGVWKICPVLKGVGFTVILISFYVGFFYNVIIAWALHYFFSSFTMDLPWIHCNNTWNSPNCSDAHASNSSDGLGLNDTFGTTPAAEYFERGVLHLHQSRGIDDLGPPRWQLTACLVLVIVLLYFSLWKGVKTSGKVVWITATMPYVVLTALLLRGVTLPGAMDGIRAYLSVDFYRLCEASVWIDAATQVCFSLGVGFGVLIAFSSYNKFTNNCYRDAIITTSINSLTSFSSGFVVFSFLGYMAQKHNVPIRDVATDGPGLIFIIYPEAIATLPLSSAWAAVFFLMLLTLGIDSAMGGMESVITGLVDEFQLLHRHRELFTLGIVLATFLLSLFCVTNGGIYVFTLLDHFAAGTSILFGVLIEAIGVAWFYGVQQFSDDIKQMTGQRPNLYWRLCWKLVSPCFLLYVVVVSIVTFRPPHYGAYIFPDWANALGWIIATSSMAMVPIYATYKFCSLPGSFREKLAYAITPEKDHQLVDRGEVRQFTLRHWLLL
How it was run: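 Rat striatal membranes (male rats, 150-250 g) incubated 90 min at 4 °C with 1 nM [3H]GBR 12935 in 50 mM Tris-HCl pH 7.4, 200 mM NaCl, 5 mM KCl; non-specific binding with 1 μM mazindol. Filtration, scintillation counting; value is % displacement of specific binding at 10^-6 M, single test; IA means <50%.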

[2] = target: T2, 5-hydroxytryptamine (5-HT) reuptake sites (Rattus norvegicus, UniProt P31652); assay: displacement of [3H]paroxetine from 5-HT reuptake sites, frontal cortical membranes; type: binding; details: 10^-6 M test compound, [3H]paroxetine 30 pM, one test only, read-out: 5-HT uptake (% displacement of specific binding of tritiated ligand)
T2 construct: Frontal cortical tissue from the brains of male Sprague-Dawley rats; from tissue; host or cells: rat brain frontal cortex (crude synaptosomes in A2, washed membranes in A5)
T2 sequence (P31652 whole entry): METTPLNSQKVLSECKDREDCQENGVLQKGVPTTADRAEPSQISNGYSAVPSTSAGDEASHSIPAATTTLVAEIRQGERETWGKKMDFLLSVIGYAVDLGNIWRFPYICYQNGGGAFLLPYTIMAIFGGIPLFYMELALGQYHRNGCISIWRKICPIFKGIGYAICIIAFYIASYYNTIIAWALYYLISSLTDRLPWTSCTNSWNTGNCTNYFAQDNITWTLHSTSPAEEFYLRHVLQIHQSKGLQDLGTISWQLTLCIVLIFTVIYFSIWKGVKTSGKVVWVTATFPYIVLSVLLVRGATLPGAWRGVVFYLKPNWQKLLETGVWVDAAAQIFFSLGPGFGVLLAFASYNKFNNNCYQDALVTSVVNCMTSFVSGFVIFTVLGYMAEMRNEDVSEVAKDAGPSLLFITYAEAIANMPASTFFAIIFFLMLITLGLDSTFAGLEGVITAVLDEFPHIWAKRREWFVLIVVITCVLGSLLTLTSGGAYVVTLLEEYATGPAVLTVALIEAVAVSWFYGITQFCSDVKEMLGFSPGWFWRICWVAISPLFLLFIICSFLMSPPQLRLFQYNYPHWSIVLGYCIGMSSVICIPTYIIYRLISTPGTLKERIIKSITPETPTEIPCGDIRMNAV
How it was run: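 Rat frontal cortex membranes (male, 150-250 g; 2 mg wet tissue/tube) in 50 mM Tris-HCl pH 7.5 with 120 mM NaCl and 5 mM KCl, incubated 2 h at 22 °C with 30 pM [3H]paroxetine and compound at 10^-6 M. Citalopram 1 μM defined non-specific binding; values are % displacement of specific binding from a single test, filtration and scintillation counting.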

[3] = target: T3, noradrenaline (NA) reuptake sites (Rattus norvegicus, UniProt Q63380); assay: displacement of [3H]nisoxetine from noradrenaline reuptake sites, frontal cortical membranes; details: 10^-6 M test compound, [3H]nisoxetine 0.6 nM, one test only, read-out: NA uptake (% displacement of specific binding of tritiated ligand)
T3 construct: Frontal cortical tissue from the brains of male Sprague-Dawley rats; from tissue; host or cells: rat brain frontal cortex (crude synaptosomes in A3, washed membranes in A6)
T3 sequence (Q63380 1-617): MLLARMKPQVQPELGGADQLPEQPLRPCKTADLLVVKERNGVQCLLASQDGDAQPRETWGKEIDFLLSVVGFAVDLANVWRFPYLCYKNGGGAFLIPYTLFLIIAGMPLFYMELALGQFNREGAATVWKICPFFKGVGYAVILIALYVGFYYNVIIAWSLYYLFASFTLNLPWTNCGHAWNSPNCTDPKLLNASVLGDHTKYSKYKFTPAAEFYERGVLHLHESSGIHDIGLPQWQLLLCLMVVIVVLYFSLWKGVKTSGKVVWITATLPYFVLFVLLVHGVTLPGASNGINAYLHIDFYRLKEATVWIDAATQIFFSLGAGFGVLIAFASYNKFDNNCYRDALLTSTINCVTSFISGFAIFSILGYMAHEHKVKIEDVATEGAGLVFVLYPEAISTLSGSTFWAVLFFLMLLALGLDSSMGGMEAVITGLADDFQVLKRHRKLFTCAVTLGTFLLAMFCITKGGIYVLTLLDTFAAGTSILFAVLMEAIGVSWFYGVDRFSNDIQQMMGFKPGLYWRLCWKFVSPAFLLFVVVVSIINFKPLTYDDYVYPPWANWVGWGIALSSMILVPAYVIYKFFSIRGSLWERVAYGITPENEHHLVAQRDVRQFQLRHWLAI
How it was run: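 Washed male rat frontal cortex membranes in 50 mM Tris pH 7.4, 300 mM NaCl, 5 mM KCl, incubated 4 h at 4 °C with 0.6 nM [3H]nisoxetine and test compound at 10^-6 M; mazindol (1 μM) defined non-specific binding. Filtration, scintillation counting; % displacement of specific binding, single test.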

Cc1ccc(N=c2scc(C3(c4ccc5ccccc5c4)CCC3)n2-c2ccc(C)cc2)cc1 [Example 50, 4-[1-(2-Naphthyl)cyclobutyl]-3-(p-tolyl)-2-(p-tolylimino)-2,3-dihydrothiazole hydrobromide]
inhibition at 1 µM [1]: 68%
inhibition at 1 µM [2]: < 50%
inhibition at 1 µM [3]: < 50%

Cc1ccccc1N=c1scc(C2(c3ccc4ccccc4c3)CCC2)n1-c1ccccc1C [Example 51, 4-[1-(2-Naphthyl)cyclobutyl)-3-(o-tolyl)-2-(o-tolylimino)-2,3-dihydrothiazole hydrobromide]
inhibition at 1 µM [1]: 69%
inhibition at 1 µM [2]: 54%
inhibition at 1 µM [3]: < 50%

Cc1ccc(N=c2scc(C3(c4ccc5ccccc5c4)CCC3)n2-c2ccc(C)cc2C)c(C)c1 [Example 52, 4-[1-(2-Naphthyl)cyclobutyl]-3-(2,4-xylyl)-2-(2,4-xylylimino)-2,3-dihydrothiazole hydrobromide]
inhibition at 1 µM [1]: 74%
inhibition at 1 µM [2]: < 50%
inhibition at 1 µM [3]: < 50%

c1ccc2cc(C3(c4csc(=NC5CCCC5)n4C4CCCC4)CCC3)ccc2c1 [Example 53, 3-Cyclopentyl-2-cyclopentylimino-4-[1-(2-naphthyl)cyclobutyl]-2,3-dihydrothiazole hydrobromide]
inhibition at 1 µM [1]: 80%
inhibition at 1 µM [2]: 71%
inhibition at 1 µM [3]: < 50%

CCOc1ccc(N=c2scc(C3(c4ccc5ccccc5c4)CCC3)n2-c2ccc(OCC)cc2)cc1 [Example 54, 3-(4-Ethoxyphenyl)-2-(4-ethoxyphenylimino)-4-[1-(2-naphthyl)cyclobutyl]-2,3-dihydrothiazole hydrobromide]
inhibition at 1 µM [1]: 69%
inhibition at 1 µM [2]: < 50%
inhibition at 1 µM [3]: < 50%

COc1ccc(CCN=c2scc(C3(c4ccc5ccccc5c4)CCC3)n2CCc2ccc(OC)c(OC)c2)cc1OC [Example 55, 3-(3,4-Dimethoxyphenethyl)-2-(3,4-dimethoxyphenethylimino)-4-[1-(2-naphthyl)cyclobutyl]-2,3-dihydrothiazole hydrobromide]
inhibition at 1 µM [1]: 91%
inhibition at 1 µM [2]: < 50%
inhibition at 1 µM [3]: < 50%

CCCCN=c1scc(C2(c3ccc(Cl)cc3)CCC2)n1CCCC [Example 56, 3-Butyl-2-butylimino-4-[1-(4-chlorophenyl)cyclobutyl]-2,3-dihydrothiazole hydrobromide]
inhibition at 1 µM [1]: 93%
inhibition at 1 µM [2]: < 50%
inhibition at 1 µM [3]: < 50%

CCCCN=c1scc(C2(c3ccc(Br)cc3)CCC2)n1CCCC [Example 57, 4-[1-(4-Bromophenyl)cyclobutyl]-3-butyl-2-butylimino-2,3-dihydrothiazole hydrobromide]
inhibition at 1 µM [1]: 94%
inhibition at 1 µM [2]: < 50%
inhibition at 1 µM [3]: < 50%

CCCCN=c1scc(C2(c3ccc(SC)cc3)CCC2)n1CCCC [Example 58, 3-Butyl-2-butylimino-4-[1-(4-methylthiophenyl)cyclobutyl]-2,3-dihydrothiazole hydrobromide]
inhibition at 1 µM [1]: 92%
inhibition at 1 µM [2]: < 50%
inhibition at 1 µM [3]: < 50%

CCCCN=c1scc(C2(c3ccc(Oc4ccccc4)cc3)CCC2)n1CCCC [Example 59, 3-Butyl-2-butylimino-4-[1-(4-phenoxyphenyl)cyclobutyl]-2,3-dihydrothiazole hydrobromide]
inhibition at 1 µM [1]: 73%
inhibition at 1 µM [2]: < 50%
inhibition at 1 µM [3]: < 50%

CCCCN=c1scc(C2(c3ccc(Cl)cc3)CCCC2)n1CCCC [Example 60, 3-Butyl-2-butylimino-4-[1-(4-chlorophenyl)cyclopentyl]-2,3-dihydrothiazole hydrobromide]
inhibition at 1 µM [1]: 106%
inhibition at 1 µM [2]: < 50%
inhibition at 1 µM [3]: < 50%

CCCCN=c1scc(C2(c3ccccc3)CCCCC2)n1CCCC [Example 61, 3-Butyl-2-butylimino-4-(1-phenylcyclohexyl)-2,3-dihydrothiazole hydrobromide]
inhibition at 1 µM [1]: 68%
inhibition at 1 µM [2]: < 50%
inhibition at 1 µM [3]: < 50%

CCCCN=c1scc(C(C)(C)c2ccc(Cl)cc2)n1CCCC [Example 62, 3-Butyl-2-butylimino-4-[1-(4-chlorophenyl)-1-methylethyl]-2,3-dihydrothiazole hydrobromide]
inhibition at 1 µM [1]: 55%
inhibition at 1 µM [2]: < 50%
inhibition at 1 µM [3]: < 50%

CCCCN=c1scc(C(C)(C)c2ccc(Cl)c(Cl)c2)n1CCCC [Example 63, 3-Butyl-2-butylimino-4-[1-(3,4-dichlorophenyl)-1-methylethyl]-2,3-dihydrothiazole hydrobromide]
inhibition at 1 µM [1]: 107%
inhibition at 1 µM [2]: 52%
inhibition at 1 µM [3]: < 50%

Clc1ccc(C2(c3csc(=NCCc4ccccc4)n3CCc3ccccc3)CCC2)cc1 [Example 64, 4-[1-(4-Chlorophenyl)cyclobutyl]-3-phenethyl-2-phenethylimino-2,3-dihydrothiazole hydrobromide]
inhibition at 1 µM [1]: 102%
inhibition at 1 µM [2]: < 50%
inhibition at 1 µM [3]: < 50%

COc1ccc(CCN=c2scc(C3(c4ccc(Cl)cc4)CCC3)n2CCc2ccc(OC)c(OC)c2)cc1OC [Example 65, 4-[1-(4-Chlorophenyl)cyclobutyl]-3-(3,4-dimethoxyphenethyl)-2-(3,4-dimethoxyphenethylimino)-2,3dihydrothiazole hydrobromide]
inhibition at 1 µM [1]: 54%
inhibition at 1 µM [2]: < 50%
inhibition at 1 µM [3]: < 50%

COc1ccc(CCN=c2scc(C3(c4ccc(Br)cc4)CCC3)n2CCc2ccc(OC)c(OC)c2)cc1OC [Example 66, 4-[1-(4-Bromophenyl)cyclobutyl]-3-(3,4-dimethoxyphenethyl)-2-(3,4-dimethoxyphenethylimino)-2,3-dihydrothiazole hydrobromide]
inhibition at 1 µM [1]: 58%
inhibition at 1 µM [2]: < 50%
inhibition at 1 µM [3]: < 50%

COc1ccc(CCN=c2scc(C3(c4ccc(Cl)cc4)CCCC3)n2CCc2ccc(OC)c(OC)c2)cc1OC [Example 67, 4-[1-(4-Chlorophenyl)cyclopentyl]-3-(3,4-dimethoxyphenethyl)-2-(3,4-dimethoxyphenethylimino)-2,3-dihydrothiazole hydrobromide]
inhibition at 1 µM [1]: 88%
inhibition at 1 µM [2]: < 50%
inhibition at 1 µM [3]: < 50%

COc1ccc(CCN=c2scc(C3(c4ccccc4)CCCCC3)n2CCc2ccc(OC)c(OC)c2)cc1OC [Example 68, 3-(3,4-Dimethoxyphenethyl)-2-(3,4-dimethoxyphenethylimino)-4-(1-phenylcyclohexyl)-2,3-dihydrothiazole hydrobromide]
inhibition at 1 µM [1]: 65%
inhibition at 1 µM [2]: < 50%
inhibition at 1 µM [3]: < 50%

COc1ccc(CCN=c2scc(C(C)(C)c3ccc(Cl)c(Cl)c3)n2CCc2ccc(OC)c(OC)c2)cc1OC [Example 69, 4-[l-(3,4-Dichlorophenyl)-1-methylethyl]-3-(3,4-dimethoxyphenethyl)-2-(3,4-dimethoxyphenethylimino)-2,3-dihydrothiazole hydrobromide]
inhibition at 1 µM [1]: 58%
inhibition at 1 µM [2]: < 50%
inhibition at 1 µM [3]: < 50%

Brc1ccc(C2(C3=CSC4=NCCN34)CCC2)cc1 [Example 70, 3-[1-(4-Bromophenyl)cyclobutyl]-5,6-dihydroimidazo[2,1-b]thiazole hydrobromide]
inhibition at 1 µM [1]: 80%
inhibition at 1 µM [2]: < 50%
inhibition at 1 µM [3]: 52%

Clc1ccc(C2(C3=CSC4=NCCN34)CCCC2)cc1 [Example 71, 3-[1-(4-Chlorophenyl)cyclopentyl]-5,6-dihydroimidazo[2,1-b]thiazole hydrobromide]
inhibition at 1 µM [1]: 96%
inhibition at 1 µM [2]: < 50%
inhibition at 1 µM [3]: 76%

Reference: patent US6187802A, “Substituted 4-arylmethylene-2-imino-2,3-dihydrothiazoles and derivatives and their pharmaceutical use” (Knoll Aktiengesellschaft, priority 1997, dated 2001)
